Each structure is given as a SMILES string.

In one data set the test system is islet cells. The settings on record: direct mechanism on islet cells; cited from earlier work.
Data set [1] has as its system β-cells of RIP-GFP islet grafts. The settings on record: mouse, in vivo.
Data set [2] in a line: Blood glucose after intravenous alloxan. Particulars: alloxan 75 mg/kg i.v., after 24 h, n=6.
Data set [3] is described as follows: Blood glucose after intravenous glibenclamide. It is filed as in vivo, mouse. Particulars: glibenclamide intravenously (1 mg/kg, tail vein); data not shown.
The next data set deals with islet cells (β-cells). Description: In vivo recording of [Ca2+]i changes in islets engrafted in the anterior chamber of the eye (Fluo-4/Fura-Red ratio). Details: species or system mouse. The settings on record: glibenclamide 1 mg/kg i.v.; remained high throughout the recording.

`FC(F)OC(Cl)C(F)(F)F` (stereo not drawn) [Isoflurane]: the “glucose stimulated insulin release” value in the data set on islet cells is “inhibit”.

`O=C1NC(=O)C(=O)C(=O)N1` [alloxan]: in data set [1], the “GFP fluorescence of islet grafts” value is “substantial loss of GFP fluorescence” and the “annexin V-APC labelling of islet grafts” value is “strong labelling”. The blood glucose concentration in data set [2] came out at 25.0 ± 1.3 mmol/L.

`COc1ccc(Cl)cc1C(=O)NCCc1ccc(S(=O)(=O)NC(=O)NC2CCCCC2)cc1` [glibenclamide]: the blood glucose levels result in data set [3] is “decreased blood glucose levels”. Besides, the “[Ca2+]i in islet cells (Fluo-4/Fura-Red fluorescence ratio)” value in the data set on islet cells (β-cells) is recorded as “prominent rises”.

Values taken from patent publication US10493108B2, “Non-invasive in vivo imaging and methods for treating diabetes” (Biocrine AB, priority 2007, dated 2019).
